Test results reported in EP4473972A1, “COMBINATIONS COMPRISING AN ATR INHIBITOR WITH SYNERGISTIC EFFECT AGAINST GLIOMAS” (Eberhard-Karls-Universität Tübingen, priority 2023, dated 2024).

How the values were obtained:
[1] = system: SMA560 glioma cells; assay: Syngeneic glioma mouse model (survival); format: in vivo, VM/Dk mice; settings: 50 mg/kg bodyweight via oral gavage, five days on, two days treatment holiday; survival = time until the onset of neurological symptoms; vehicle control 14 days
Source text: All animal experiments were approved by the regional council Tübingen and conducted in accordance with animal law. Animals used in this study are kept and bred in the animal facility of the institute. They are regularly analyzed for infectious diseases. The inventors injected 5000 SMA560 glioma cells into the right striatum of VM/Dk mice (male and female). On day 5 post surgery, they randomized mice into treatment and control arm. The inventors administered AZD6738 (celasertib, Selleckchem, Houston, TX, US) at 50 mg/kg bodyweight or vehicle control via oral gavage for five days followed by two days of treatment holiday. Animals were closely monitored as shown in the scoring sheets. The endpoint of the experiment was according to the animal law "the time until the onset of neurological symptoms", in the text designated as "survival".

[2] = system: LN229 cells; assay: Cell cycle analysis (propidium iodide flow cytometry); format: cell-based, human; settings: LN229, 72 h
Experimental: The inventors seeded the cells on day one and treated them on the next day. After 72 h, they detached the cells and stained them with propidium iodide solution (50 µg/mL propidium iodide (Thermo Fisher Scientific, Waltham, MA, US), 0.2% Triton X-100 (Roth, Karlsruhe, Germany), 100 µg RNase (Thermo Fisher Scientific, Waltham, MA, US), 1 g/L glucose in PBS (phosphate buffered saline) (Gibco, Carlsbad, CA, US). Flow cytometry was done using a MACSQuant Analyzer 10 (Miltenyi Biotec, Bergisch Gladbach, Germany). The inventors analyzed the acquired data with the FlowJo software (Beckton, Dickinson & Company, Franklin Lakes, NJ, US).

[3] = system: LN229 cells; assay: RNA-Sequencing (RNAseq); format: cell-based, human
Experimental: (§1) For this, the inventors seeded the cells on day one and treated them on the next day with IC50 concentrations of AZD6738 for up to 72 h. They extracted the RNA using the Qiagen RNeasy Mini kit (Qiagen, Venlo, NL) according to manufacturer's protocol. For RNA sequencing, the inventors enriched the mRNA fraction using polyA capture from 200 ng of total RNA using the NEBNext Poly(A) mRNA Magnetic Isolation Module (NEB). They used the NEB Next Ultra II Directional RNA Library Prep Kit for Illumina (NEB) to prepare mRNA libraries according to manufacturer's instructions. The libraries were sequenced as paired-end 50 bp reads on an Illumina NovaSeq6000 (Illumina) with a sequencing depth of approximately 25 million clusters per sample. The inventors performed RNA raw data QC and processing using megSAP (version 0.2-135-gd002274) combined with ngs-bits package (version 2019_11-42-gflb98e63). To align the reads to the GRCh38 they used STAR v2.7.3a and alignment quality was analyzed using ngs-bits. Normalized read counts for all genes were obtained using Subread (v2.0.0) and edgeR (v3.26.6). The inventors used the R package "DESeq2" for further analyses. They defined differentially expressed genes (DEGs) as log2 fold-change (LFC) above or below |1| and p-adjusted < 0.01 as defined by Wald statistics. The inventors analyzed the resulting hits for KEGG pathway association using gProfiler. […] They re-aligned significant LRT genes with DEG results and analyzed them with gProfiler.

[4] = system: LNZ308 cells; assay: RNA-Sequencing (RNAseq); format: cell-based, human
Experimental: as §1

[5] = system: LN229 cells; assay: DigiWest Multiplex Protein Analysis; format: cell-based, human; settings: LN229, 72 h
Experimental: (§2) After 72 h of AZD6738 treatment, the inventors detached and counted the cells and subsequently snap froze them in liquid nitrogen. For protein preparation, they kept the cells on ice and added 20-30 µL of lysis buffer (LDS Lysis Buffer (Life Technologies, Carlsbad, CA, USA), supplemented with reducing agent (Thermo Fisher Scientific, Waltham, MA, USA) and protease- (Roche Diagnostics GmbH, Mannheim, Germany) and phosphatase-inhibitor (Roche)). Proteins were denatured by heating to 95°C for 10 min before the lysates were transferred to QiaShredder Eppendorf tubes (Eppendorf, Hamburg, Germany). After centrifugation (16,000g, 5 min, RT), eluates were stored at -80°C until further use. Protein quantification was performed using in-gel staining. 1 µL of each original lysate was diluted 1:10 (v/v) in lysis buffer. The respective aliquots were denatured for 10 mins at 70°C and 10 µL were run in a NuPAGE 4-12% Bis-Tris precast gel (Thermo Fisher Scientific) according to the manufacturer's instructions. The gel was washed with water and proteins were stained with BlueBandit (VWR, Darmstadt, Germany) for 1 h. The gel was de-stained over night with ddH2O before detection on a LI-COR (LI-COR, Bad Homburg, Germany) instrument. Analysis and protein quantification was performed using ImageStudio.
(§3) The DigiWest analysis was performed as described in the art. In brief, the inventors loaded 10 µg of cellular protein on an SDS-polyacrylamide gel and size-separated them using the commercial NuPAGE system (Life Technologies). Size-separated proteins were blotted onto a PVDF membrane and biotinylated on the membrane using NHS-PEG12-Biotin (50 µM) in PBST for 1 h. After drying of the membrane, the samples lanes were cut into 96 strips of 0.5 mm width using an automated cutting plotter (Silhouette America, West Orem, UT, USA) each corresponding to a defined molecular weight fraction. Each of the strips was placed in one well of a 96-well plate and 10 µl elution buffer (8 M urea, 1% Triton-X100 in 100 mM Tris-HCl pH 9.5) was added. The eluted proteins were diluted with 90 µl of dilution buffer (5% BSA in PBS, 0.02% sodium azide, 0.05% Tween-20) and each of the protein fractions was incubated with 1 distinct magnetic color-coded bead population (Luminex, Austin, USA) coated with neutravidin. The biotinylated proteins bind to the neutravidin beads such that each bead color represents proteins of one specific molecular weight fraction. All 96 protein loaded bead populations were mixed resulting in reconstitution of the original lane. Such a beadmix was sufficient for about 150 individual antibody incubations. Aliquots of the DigiWest bead-mixes (about 1/200th per well) were added to 96 well plates containing 50 µl assay buffer (Blocking Reagent for ELISA (Roche, Rotkreuz, Switzerland) supplemented with 0.2% milk powder, 0.05% Tween-20 and 0.02% sodium azide) and different diluted antibodies were added to the wells. After overnight incubation at 15°C in a shaker, the bead-mixes were washed twice with PBST and species-specific PE-labelled (Phycoerythrin) secondary antibodies (Dianova, Hamburg, Germany) were added and incubated for 1 hour at 23°C. Beads were washed twice prior to readout on a Luminex FlexMAP 3D.
(§4) For quantification of the antibody specific signals, we used the DigiWest Analyzer software; it automatically identifies peaks of appropriate molecular weight and calculates the peak area. Signal intensity was normalized to the total amount of protein loaded onto one lane. The software package MEV 4.9.0 was used for statistical analysis along with Graph Pad Prism (Version 9.0.0). For all statistical tests, a p-value <0.05 was considered significant.

[6] = system: LNZ308 cells; assay: DigiWest Multiplex Protein Analysis; format: cell-based, human; settings: LNZ308, 72 h
Experimental: as §2, §3, §4

C[C@@H]1COCCN1c1cc(C2([S@](C)(=N)=O)CC2)nc(-c2cc[nH]c3nccc2-3)n1 [AZD6738, ceralasertib]
median survival [1]: 21 days
cell cycle alterations [2]: accumulation in S phase
PI3K-Akt signaling (KEGG pathway) [3]: downregulated
p53 signaling (KEGG pathway) [3]: strongly upregulated
PI3K-Akt signaling (KEGG pathway) [4]: upregulated
CDC25C and pHistH3 (Ser10) [5]: downregulated
Survivin (BIRC5) [5]: upregulated
p53, p21 and Bax [5]: upregulation
pAkt [5]: downregulation
p16 [6]: accumulation
pCDK2 (Thr160) protein levels [6]: reduced
